Experimental data published in US8097629B2, “Dihydropyridinone derivatives” (Bayer Pharma Aktiengesellschaft, priority 2004, dated 2012).

How the values were obtained:
[1] = target: T1, human neutrophil elastase (HNE) (Homo sapiens, UniProt P08246); assay: In vitro inhibition of HNE using a fluorogenic peptide substrate; assay type: biochemical; details: substrate MeOSuc-Ala-Ala-Pro-Val-AMC, 384 MTP format
T1 construct: purchased SERVA Electrophoresis GmbH, Heidelberg, Germany #20927.01
T1 sequence (P08246 30-267): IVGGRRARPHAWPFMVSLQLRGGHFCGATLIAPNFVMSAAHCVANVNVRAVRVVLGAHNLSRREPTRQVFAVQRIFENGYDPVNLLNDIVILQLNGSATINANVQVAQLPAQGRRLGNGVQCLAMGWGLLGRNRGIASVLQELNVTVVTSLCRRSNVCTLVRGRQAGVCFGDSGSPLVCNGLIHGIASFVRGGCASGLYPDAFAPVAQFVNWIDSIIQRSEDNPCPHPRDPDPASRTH
Protocol: I. In vitro Enzyme Assays of Human Neutrophil Elastase (HNE)
assay buffer: 0.1 M HEPES-NaOH buffer pH 7.4, 0.5 M NaCl, 0.1% (w/v) bovine serum albumin;
suitable concentration (see below) of HNE (18 U/mg lyophil., #20927.01, SERVA Electrophoresis GmbH, Heidelberg, Germany) in assay buffer;
suitable concentration (see below) of substrate in assay buffer;
suitable concentration of test compounds diluted with assay buffer from a 10 mM stock solution in DMSO.
In vitro Inhibition of HNE Using a Fluorogenic Peptide Substrate (Continuous Read-out Signal, 384 MTP Assay Format):
In this protocol, the elastase substrate MeOSuc-Ala-Ala-Pro-Val-AMC (#324740, Calbiochem-Novabiochem Corporation, Merck KGaA, Darmstadt, Germany) is used. The test solution is prepared by mixing 10 μl of test compound dilution, 20 μl of HNE enzyme dilution (final concentration 8-0.4 μU/ml, routinely 2.1 μU/ml) and 20 μl of substrate dilution (final concentration 1 mM-1 μM, routinely 20 μM), respectively. The solution is incubated for 0-2 hrs at 37° C. (routinely one hour). The fluorescence of the liberated AMC due to the enzymatic reaction is measured at 37° C. (TECAN spectra fluor plus plate reader). The rate of increase of the fluorescence (ex. 395 nm, em. 460 nm) is proportional to elastase activity. IC50 values are determined by RFU-versus-[I] plots. Km and Km(app.) values are determined by Lineweaver-Burk plots and converted to Ki values by Dixon plots.

[2] = test system: human polymorphonuclear cells (PMNs); assay: In vitro PMN elastolysis assay; assay type: cell-based; details: mean±s.e.m.
Protocol: In vitro PMN Elastolysis Assay:
This assay is used to determine the elastolytic potential of human polymorphonuclear cells (PMNs) and assess the proportion of degradation due to neutrophil elastase [cf. Z. W. She et al., Am. J Respir. Cell. Mol. Biol. 9, 386-392 (1993)].
Tritiated elastin, in suspension, is coated on to a 96 well plate at 10 μg per well. Test and reference [ZD-0892 (J. Med. Chem. 40, 1876-1885, 3173-3181 (1997), WO 95/21855) and α1 protease inhibitor (α1PI)] compounds are added to the wells at the appropriate concentrations. Human PMNs are separated from peripheral venous blood of healthy donors and resuspended in culture media. The neutrophils are added to the coated wells at concentrations ranging between 1×10^6 to 1×10^5 cells per well. Porcine pancreatic elastase (1.3 μM) is used as a positive control for the assay, and α1PI (1.2 μM) is used as the positive inhibitor of neutrophil elastase. The cellular, control is PMNs without compound at each appropriate cell density. The cells plus compounds are incubated in a humidified incubator at 37° C. for 4 hours. The plates are centrifuged to allow the harvest of cell supernatant only. The supernatant is transferred in 75 μl volumes to corresponding wells of a 96 well Lumaplate™ (solid scintillant containing plates). The plates are dried until no liquid is visible in the wells and read in a beta counter for 3 minutes per well. […]

Compound | IC50 [1] [nM] | other results
α1PI: α1 protease inhibitor, used as the positive inhibitor of neutrophil elastase | – | inhibition of 3H-elastin elastolysis ([2]; at 1.2 μM, n=3 different donors at 3.6×10^5 cells per well): 83.46±3.97%
COc1ccc(C(=O)N[C@H](C(=O)N2CCC[C@H]2C(=O)N[C@H](C(=O)C(F)(F)F)C(C)C)C(C)C)cc1 [ZD-0892] | – | IC50 ([2]; n=2 different donors at 3.6×10^5 cells per well): 45.5 ± 7.75 nM
COc1ccc(CN(C)C(=O)C2C(=O)N(c3cccc(C(F)(F)F)c3)C(C)=C(C(C)=O)C2c2ccc(C#N)cc2)cc1 (centres unmarked) [Example 19] | 40 | –

Continued, in another order:

IC50 [1] [nM] | Compound | other results
50 | COCCOCCCNC(=O)C1C(=O)N(c2cccc(C(F)(F)F)c2)C(C)=C(C(C)=O)C1c1ccc(C#N)cc1 (centres unmarked) [Example 61] | –
30 | CC(=O)C1=C(C)N(c2cccc(C(F)(F)F)c2)C(=O)C(C(=O)N(C)c2cccc(C)c2)C1c1ccc(C#N)cc1 (centres unmarked) [Example 27] | –
60 | CCOC(=O)N1CCN(C(=O)C2C(=O)N(c3cccc(C(F)(F)F)c3)C(C)=C(C(C)=O)C2c2ccc(C#N)cc2)CC1 (centres unmarked) [Example 54] | –
60 | CC(=O)C1=C(C)N(c2cccc(C(F)(F)F)c2)C(=O)C(C(=O)N2CCN3CCCC3C2)C1c1ccc(C#N)cc1 (centres unmarked) [Example 34] | –
70 | CC(=O)C1=C(C)N(c2cccc(C(F)(F)F)c2)C(=O)C(C(=O)N2CCN(CCN3CCOCC3)CC2)C1c1ccc(C#N)cc1 (centres unmarked) [Example 45] | –
